In patent publication US4522824A, “Indole derivatives of tryptamine and cardiovascular compositions thereof” (Sanofi, priority 1982, dated 1985):
Where a name gives a salt, the structure may show the parent alone.

Tests used:
β-adrenergic receptors = experiment: Antagonism of the effects of isoprenaline (tachycardia) in the anaesthetized dog; format: in vivo; conditions: dose inhibiting 80% of the tachycardia induced by i.v. isoprenaline, intravenous
Protocol: (§1) In vivo pharmacological action in the dog
(§2) The dog is anaesthetized with sodium pentobarbital, administered by the intravenous route at the dose of 30 mg/kg. A cannula placed in the short saphenous vein allows the products to be injected intravenously. The animal is intubated and allowed to breathe spontaneously.
(§3) The cardiac frequency (C.F.) and the systemic arterial pressure (A.P.) and the parameter (dP/dt)p^-1 max which expresses the cardiac contractibility are recorded with the aid of catheters and the variations in these parameters are measured after intravenous injection of the product to be tested, each product being tested at increasing doses.
Antagonism of the effects of isoprenaline
The antagonism of the products with respect to the stimulating cardiovascular effects of isoprenaline on the β-adrenergic receptors was sought. The results are shown in Table II hereinafter and expressed in ID80 : this is the dose expressed in mg/kg which provokes inhibition of 80% of the tachycardia induced by the isoprenaline administered by the intravenous route.

[1] = In vivo pharmacological action in the anaesthetized dog (cardiac frequency, systemic arterial pressure, cardiac contractibility); conditions: Table II, parameter name is in the drawing [drawing 9], intravenous; for direct effect: first sign; for direct effect, [drawing 9]: second sign (wrapped to next line)
Protocol: as §1, §2, §3

[2] = Chronotropic effect in the dog subjected to reserpine and anaesthetized; format: in vivo; conditions: 1 mg/kg intravenous
α-adrenergic receptors = experiment: Antagonism of the effects of noradrenaline (pressive response) in the dog; format: in vivo; conditions: dose inhibiting 50% of the pressive response to i.v. noradrenaline
Protocol: as §1, §2, §3
Antagonism of the effects of noradrenaline
The antagonism of the products with respect to the vascular effects provoked by the intravenous administration of noradrenaline on the α-adrenergic receptors was sought. The results shown in Table II are expressed in ID50 : this is the dose (mg/kg) which provokes the inhibition of 50% of the pressive response due to the intravenous administration of noradrenaline.

[3] = Cardiac frequency in the alert dog after oral administration; format: in vivo
Excerpt: The different results on the cardiovascular system obtained in the anaesthetized dog have been confirmed for certain products in the alert dog after administration of the product by the oral route.

SMILES: CCOC(=O)c1cc2c(OCC(O)CNC(C)Cc3c[nH]c4ccccc34)cccc2[nH]1 (racemic) [SR41294A]
- ID80 isoprenaline, β-effect (β-adrenergic receptors): 0.1 mg/kg
- direct effect [1]: .dwnarw.
- direct effect, [drawing 9] [1]: .dwnarw.

SMILES: CCOC(=O)c1cc2c(OCC(O)CNC(C)(C)Cc3c[nH]c4ccccc34)cccc2[nH]1 (stereo not drawn) [CM40593, 4-[3-[2-(3-indolyl)1,1-dimethylethylamino]2-hydroxypropoxy]2-ethoxycarbonyl indole]
- chronotropic effect [2]: slight positive chronotropic effect
- ID80 isoprenaline, β-effect (β-adrenergic receptors): 0.1 mg/kg
- direct effect [1]: = or .dwnarw.
- direct effect, [drawing 9] [1]: .uparw.
- ID50 (α-adrenergic receptors): 0.1 mg/kg

SMILES: CC(C)(Cc1c[nH]c2ccccc12)NCC(O)COc1cccc2[nH]c(C(N)=O)cc12 (stereo not drawn) [CM41105]
- ID80 isoprenaline, β-effect (β-adrenergic receptors): 0.1 mg/kg
- direct effect [1]: weak .dwnarw.
- direct effect, [drawing 9] [1]: .uparw.

SMILES: CC(C)(Cc1c[nH]c2ccccc12)NCC(O)COc1cccc2[nH]c(CO)cc12 (stereo not drawn) [CM41165]
- ID80 isoprenaline, β-effect (β-adrenergic receptors): 0.05 mg/kg
- direct effect [1]: .dwnarw.
- direct effect, [drawing 9] [1]: .dwnarw.

SMILES: CC(C)(Cc1c[nH]c2ccccc12)NCC(O)COc1cccc2[nH]c(C#N)cc12 (stereo not drawn) [SR41370A]
- ID80 isoprenaline, β-effect (β-adrenergic receptors): 0.05 mg/kg
- direct effect [1]: weak .dwnarw.
- direct effect, [drawing 9] [1]: .uparw.

SMILES: CCOC(=O)c1cc2c(OCC(O)CNC(C)(C)Cc3c[nH]c4ccc(OC)cc34)cccc2[nH]1 (stereo not drawn) [SR41648]
- ID80 isoprenaline, β-effect (β-adrenergic receptors): 0.1 mg/kg
- direct effect [1]: .dwnarw.
- direct effect, [drawing 9] [1]: .dwnarw.

SMILES: CCOC(=O)c1cc2c(OCC(O)CNC(C)(C)Cc3c[nH]c4ccc(C)cc34)cccc2[nH]1 (stereo not drawn) [SR41716A]
- effect on cardiac frequency [3]: decrease the cardiac frequency or are without action thereon

SMILES: CC(C)OC(=O)c1cc2c(OCC(O)CNC(C)(C)Cc3c[nH]c4ccccc34)cccc2[nH]1 (stereo not drawn) [SR41719A]
- effect on cardiac frequency [3]: decrease the cardiac frequency or are without action thereon

SMILES: CCOC(=O)c1cc2c(OCC(O)CNC(C)(C)Cc3c[nH]c4ccc(F)cc34)cccc2[nH]1 (stereo not drawn) [SR41779A]
- effect on cardiac frequency [3]: decrease the cardiac frequency or are without action thereon

SMILES: CCOC(=O)c1cc2c(OCC(O)CNC(C)(C)Cc3c[nH]c4ccc(Cl)cc34)cccc2[nH]1 (stereo not drawn) [SR41780A]
- effect on cardiac frequency [3]: decrease the cardiac frequency or are without action thereon

SMILES: CC(C)(Cc1c[nH]c2ccccc12)NCC(O)COc1cccc2[nH]c(C(=O)O)cc12 (stereo not drawn) [SR41828A]
- effect on cardiac frequency [3]: decrease the cardiac frequency or are without action thereon
- ID80 isoprenaline, β-effect (β-adrenergic receptors): 0.3 mg/kg
- direct effect [1]: = or .dwnarw.
- direct effect, [drawing 9] [1]: =

SMILES: CCCCN(CCCC)C(=O)c1cc2c(OCC(O)CNC(C)(C)Cc3c[nH]c4ccccc34)cccc2[nH]1 (stereo not drawn) [SR41830A]
- ID80 isoprenaline, β-effect (β-adrenergic receptors): 1 mg/kg
- direct effect, [drawing 9] [1]: .uparw.

SMILES: CCOC(=O)c1cc2c(OCC(O)CNC(C)(C)Cc3c[nH]c4ccc(C#N)cc34)cccc2[nH]1 (stereo not drawn) [SR41831A, 4-[3-[(5-cyano 3-indolyl)1,1-dimethylethylamino]2-hydroxypropoxy]2-ethoxycarbonyl indole, neutral fumarate]
- ID80 isoprenaline, β-effect (β-adrenergic receptors): 0.1 mg/kg
- direct effect [1]: .dwnarw.
- direct effect, [drawing 9] [1]: .dwnarw.

SMILES: CCOC(=O)c1cc2c(OCC(O)CNC(C)(CO)Cc3c[nH]c4ccccc34)cccc2[nH]1 (stereo not drawn) [SR41832]
- ID80 isoprenaline, β-effect (β-adrenergic receptors): 0.1 mg/kg
- direct effect [1]: .dwnarw.
- direct effect, [drawing 9] [1]: .dwnarw.
